Experimental data as given in article PMC9135335, “Structure and kinase activity of bacterial cell cycle regulator CcrZ” (PLoS Genetics, 2022).

Columns and labels:
CcrZ (YtmP) [1] = target: T1, CcrZ (YtmP) (Bacillus subtilis, UniProt C0SPC1); assay: ADP-Glo ATPase assay (proxy for kinase activity); type: biochemical; conditions: 0.1 mM ATP, 37 °C, 30 min, product not identified
T1 construct: full length, 6xHis-SUMO tag cleaved by SUMO protease, expressed in E. coli; monomer ~30 kDa; selenomethionine derivative for the crystal
T1 sequence (C0SPC1 1-269): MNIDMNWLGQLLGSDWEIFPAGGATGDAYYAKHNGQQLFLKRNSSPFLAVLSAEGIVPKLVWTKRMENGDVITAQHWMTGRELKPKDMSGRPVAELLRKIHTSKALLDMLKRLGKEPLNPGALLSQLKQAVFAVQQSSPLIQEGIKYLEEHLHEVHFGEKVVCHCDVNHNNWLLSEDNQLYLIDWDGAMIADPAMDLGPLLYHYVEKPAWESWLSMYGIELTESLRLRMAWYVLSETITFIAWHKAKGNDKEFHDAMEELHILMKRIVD

CcrZ (YtmP) [2] = target: T1, CcrZ (YtmP); assay: X-ray crystallography, SAD, […] Å; type: binding; conditions: selenomethionine derivative; pH 5.84, PEG 6000, 1 M LiCl, MgCl2 and D-ribose added but not seen; adenine in ATP pocket, phosphates turned to solvent (non-catalytic pose)
LicA = target: T2, LicA (Streptococcus pneumoniae, UniProt Q8DPI4); assay: ADP-Glo ATPase assay (proxy for kinase activity); type: biochemical; conditions: 1.25 mM choline, 0.1 mM ATP, 37 °C, 30 min
T2 construct: gene pck; gene codon optimized for B. subtilis, pE-SUMO-kan vector, SUMO tag cleaved, expressed in E. coli BL21
T2 sequence (Q8DPI4 entry or part of it): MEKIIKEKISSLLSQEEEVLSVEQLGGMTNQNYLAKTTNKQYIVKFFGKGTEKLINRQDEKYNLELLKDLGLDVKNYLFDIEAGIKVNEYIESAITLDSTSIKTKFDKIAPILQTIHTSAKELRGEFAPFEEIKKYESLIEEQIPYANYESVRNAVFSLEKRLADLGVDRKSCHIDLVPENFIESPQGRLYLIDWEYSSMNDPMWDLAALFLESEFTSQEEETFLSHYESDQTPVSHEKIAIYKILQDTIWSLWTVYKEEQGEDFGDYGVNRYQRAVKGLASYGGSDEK

OC[C@H]1OC(O)C[C@@H]1O (stereo partly drawn) [2-deoxy-D-ribose]
ADP-Glo ATPase assay (proxy for kinase activity) (CcrZ (YtmP) [1]; 5 mM 2-deoxy-ribose): CcrZ ATPase activity was stimulated in the presence of D-ribose and 2-deoxy-D-ribose

Nc1ncnc2c1ncn2[C@@H]1O[C@H](COP(=O)(O)OP(=O)(O)NP(=O)(O)O)[C@@H](O)[C@H]1O [AMP-PNP]
X-ray crystallography, SAD, 2.6 Å (CcrZ (YtmP) [2]): we solved the crystal structure of B. subtilis CcrZ bound to AMP-PNP

OC1OC[C@@H](O)[C@@H](O)[C@H]1O (stereo partly drawn) [D-ribose]
ADP-Glo ATPase assay (proxy for kinase activity) (CcrZ (YtmP) [1]; 5 mM D-ribose): CcrZ ATPase activity was stimulated in the presence of D-ribose and 2-deoxy-D-ribose

C[N+](C)(C)CCO [choline]
ADP-Glo ATPase assay (proxy for kinase activity) (LicA): CcrZ does not have activity on choline while LicA shows robust activity
